What was measured:
[1] = system: blood flow in microvessels; assay: Effects on microcirculation in vivo in mesenterium of rabbit with lowered blood pressure (Experiment 3); conditions: other substances, anesthetized rabbit, low arterial blood pressure
[2] = system: Lung fibroblasts of human embryo; assay: Toxicity of gelatin to cells in culture; format: cell-based
Rat = assay: Acute toxicity (LD50) in rat; format: in vivo; parameters: unit not given here; conditions: intravenous, intraperitoneal, subcutaneous
[3] = system: EB virus transformed lymphoblastoid cells P3HR-1; assay: Toxicity of gelatin to cells in culture; format: cell-based
erythrocytes = assay: Dose-response of gelatin on filtration and hemolysis of erythrocytes (Experiment 4(i)); format: cell-based
Description: (i) Following procedures similar to the Experiment 2 using a concentration of gelatin between 0-2.0 mg/ml, effects of the substance on the filtration ratios of erythrocytes through the membrane filter and the ratio of hemolysis were examined at various concentrations of gelatin.

HeLa S3 = assay: Toxicity of gelatin to cells in culture; format: cell-based
[4] = Acute toxicity, overall (Experiment 5); format: in vivo; conditions: summary of Tables 1, 2 and 3
[5] = Antigenic activity of gelatin; conditions: by itself
Sheep = assay: Acute toxicity (LD50 of gelatin) in sheep; format: in vivo; parameters: unit not given here; conditions: intravenous, intraperitoneal, subcutaneous

Description for human erythrocytes: A mixture of 1 part of human blood and 1 part (v/v) of preservative solution (sodium citrate buffer containing glucose) was washed 4 to 5 times with physiological saline solution and then 2% (by volume) erythrocyte solution was prepared in physiological saline. In the next step, physiological saline solutions containing 0.05% gelatin, 0.1% α1 -acid glycoprotein, 0.1% polyethylene glycol, 0.1% γ-globulin, 0.1% ovomucoid, 0.1% dextran, 0.1% dextran sulfate, 0.1% chondroitin sulfate, or physiological saline alone were mixed with an equal volume of the erythrocyte suspension, and then each mixture was shaken mildly for 30 min at 37° C. Thereafter 1 ml of each mixture was subjected to filtration through a nitrocellulose membrane filter (13 mm in diameter and 5 μm in average size of micropores, made by Sartorius Co.) at 37° C. under a pressure of 80 mmHg/cm^2. The filtrate was immediately subjected to centrifugation for 2 min at 1,500 r.p.m. and from the supernatant, the ratio of hemolysis during filtration was calculated based on absorbance at 420 nm. As to the erythrocytes remaining on the filter, 5 ml of deionized water was added to the erythrocytes on the membrane filter by placing into a test tube, and the resulting hemolysis due to hypotonicis permitted a measurement of absorbance at 420 nm to calculate the ratio of filtered erythrocytes through the membrane.

dextran sulfate [reference compound]
erythrocytes hemolysed during filtration (human erythrocytes; human, erythrocytes): 25-30%
actions on microcirculation as observed for gelatin [1]: did not exert any actions on microcirculation

gelatin
Toxicity (50% growth inhibition) [2]: > 100 µg/mL
LD50 of gelatin (Rat): > 1,000
Toxicity (50% growth inhibition) [3]: > 100 µg/mL
ratio of passage (filtration) of erythrocytes through the filter (human erythrocytes; 0.05% gelatin, 0.1% other substances, 5 μm micropores, 37° C., 80 mmHg/cm^2): increased remarkably
ratio of hemolysis during filtration (in words) (human erythrocytes; 0.05% gelatin, 5 μm micropores, 37° C., vs physiological saline control): reduced
filtration ratio on further increase in concentration (erythrocytes; above 0.5 mg/ml gelatin): did not improve the filtration ratio
concentration at which filtration ratio of erythrocytes reached plateau (erythrocytes; gelatin 0-2.0 mg/ml): 0.5 mg/mL
Toxicity (50% growth inhibition) (HeLa S3): > 100 µg/mL
acute toxicity (in words) [4]: very mild
antigenic activity [5]: no antigenic activity
LD50 of gelatin (Sheep): > 1,000
